Measured values as given in PMC4629473 (European journal of medicinal chemistry, 2015).
Where two headings read alike, the source gives them in different places.

Tests used:
[1] = target: HIV-1 IN recombinant protein (Human immunodeficiency virus type 1 group M subtype B, UniProt P12497); assay: HIV-1 integrase 3′-processing gel-based assay; type: biochemical
CEM cells = assay: Cytotoxicity in CEM cells; type: cell-based
HIV-1 = assay: Antiviral activity against HIV-1 in activated primary human PBM cells; type: cell-based; conditions: read-out: EC50 (μM), concentration required to induce 50% of inhibition
Vero cells = assay: Cytotoxicity in Vero cells; type: cell-based
PBM cells = assay: Cytotoxicity in normal PBM cells; type: cell-based, human

Compound | IC50 [1] | CC50 (CEM cells; read-out: CC50 (μM) CEM, CEM cells, concentration reducing cell growth by 50%) | EC50 (HIV-1) | CC50 (Vero cells; read-out: CC50 (μM) VERO, VERO cells, concentration reducing cell growth by 50%) | CC50 (PBM cells; read-out: CC50 (μM) PBM, PBM cells, concentration reducing cell growth by 50%) | CC50 (CEM cells) | CC50 (Vero cells) | CC50 (PBM cells)
CCOC(=O)c1c(-c2ccccc2)nc(=O)n(Cc2ccc(C(=O)/C=C(\O)C(=O)O)cc2)c1C [4a, 4-[4-[(5-ethoxycarbonyl-6-methyl-2-oxo-4-phenyl-pyrimidin-1-yl)methyl]phenyl]-2-hydroxy-4-oxo-but-2-enoic acid] | > 111 µM | – | – | – | – | – | – | –
Ethyl (Z)-6-ethyl-1-(4-(3-(3-hydroxy-4-isopropoxy-4-oxobut-2-enoyl)benzyl)benzyl)-2-oxo-4-phenyl-1,2-dihydropyrimidine-5-carboxylate [19′] | – | 8.9 µM | 36.8 µM | > 100 µM | 47.6 µM | – | – | –
Ethyl (Z)-1-(4-(3-hydroxy-4-isopropoxy-4-oxobut-2-enoyl)benzyl)-4-(4-methoxyphenyl)-2-oxo-6-phenyl-1,2-dihydropyrimidine-5-carboxylate [4′l] | – | – | 80.6 µM | – | – | 25.3 µM | > 100 µM | > 100 µM
